In a melting point compilation (Tetko et al.):

CCOC(=O)c1c(C)noc1N
melting point: 133 to 135 °C

NC(=O)C1CCCN(Cc2ccccc2N)C1 (stereo unspecified)
melting point: 133 to 135 °C

O=C(O)c1cc(Cl)c(Cl)[nH]1
melting point: 164 to 166 °C

OCCNCc1cccc(OCc2ccccc2Cl)c1
melting point: 49 to 50 °C

O=C(O)CN1C(=O)c2ccccc2S1(=O)=O
melting point: 218 to 220 °C

CC1(O)C(=O)Nc2ccccc21 (stereo unspecified)
melting point: 156 to 158 °C

COc1ccc2c(=O)c(-c3ccccc3)c(C)oc2c1
melting point: 136 to 138 °C

Cc1ccc(NS(=O)(=O)c2ccc(NN)c([N+](=O)[O-])c2)c(C)c1
melting point: 215 to 217 °C

O=C(O)CCc1nnc(-c2ccc(Cl)cc2)o1
melting point: 159 to 161 °C

O=C(CC(=O)NCC1CCCO1)NCC1CCCO1 (stereo unspecified)
melting point: 77 to 79 °C

O=C(O)C12CC3CC(C1)CC(C(F)(F)F)(C3)C2
melting point: 138 to 140 °C

Nc1cc(-c2ccc(I)cc2)no1
melting point: 159 to 161 °C

O=Cc1cccc(OCc2cccc(C(=O)O)c2)c1
melting point: 122 to 124 °C

O=C(CN1CCNCC1)Nc1cccc(F)c1
melting point: 68 to 70 °C

COc1cc(C(=O)O)on1
melting point: 145 to 147 °C

O=C1COc2ccc(F)cc21
melting point: 104 to 106 °C

Cc1ccc(CNC(=O)c2nnc(CCl)s2)cc1
melting point: 153 to 155 °C

CS(=O)(=O)c1cccc(C(N)c2ccccc2)c1 (stereo unspecified)
melting point: 48 to 50 °C

COc1cccc2c1CCC2=O
melting point: 105 to 107 °C

Nc1nc(-c2cc(Cl)ccc2Cl)cs1
melting point: 161 to 165 °C

O=C(O)CCNS(=O)(=O)c1cccc(Cl)c1
melting point: 143 to 145 °C

Cn1c(-c2cccc(O)c2)nc2ccccc21
melting point: 174 to 176 °C

O=C(NCc1ccc2c(c1)OCO2)n1ccnc1
melting point: 108 to 110 °C

Cn1cc(C(=O)O)c(-c2ccc(F)cc2F)n1
melting point: 231 to 233 °C

CN(C)C(=O)Sc1ccc(CCl)cc1
melting point: 78 to 80 °C

Cc1cc(O)nc(C(C)(C)C)n1
melting point: 177 to 179 °C

Nc1ccc(I)cc1Br
melting point: 83 to 85 °C

COc1ccccc1CNc1ccc2[nH]c(=O)[nH]c2c1
melting point: 216 to 218 °C

CCCCCCOc1ccc(C=O)cc1OC
melting point: 38 to 42 °C

Nc1nc(Cc2ccccc2Br)cs1
melting point: 115 to 117 °C

O=C(O)Cc1ccc(-n2cccc2)cc1
melting point: 171 to 173 °C

CC(=O)Nc1cccc(C(C)O)c1 (stereo unspecified)
melting point: 103 to 105 °C

O=C1CN(CCOc2ccc(Br)cc2)CCN1
melting point: 111 to 113 °C

O=C(O)c1cc(S(=O)(=O)F)cs1
melting point: 191 to 193 °C

Cc1cc(N2CC(C(=O)O)CC2=O)ccc1Br (stereo unspecified)
melting point: 167 to 169 °C

Cc1cc([N+](=O)[O-])ccc1C#N
melting point: 99 to 101 °C

O=C(O)c1ccc(N2CCCC2=O)cc1
melting point: 250 to 252 °C

O=C(O)c1cccnc1C1CC1
melting point: 196 to 198 °C

COC(C)C(N)=NO (stereo unspecified)
melting point: 118 to 120 °C

CCOC(=O)c1c(C(C)(C)C)csc1N
melting point: 56 to 58 °C

Cc1ccc(I)c(C(=O)O)c1
melting point: 119 to 121 °C

N#Cc1cc(Cl)nc2ccccc12
melting point: 153 to 155 °C

COc1ccc(C(=O)O)cc1OCc1ccncc1
melting point: 201 to 203 °C

Cc1oc2[nH]c(=O)n(-c3ccccc3)c(=O)c2c1C(=O)O
melting point: 289 to 291 °C

c1ccc(NC2CCN(c3ccncc3)CC2)cc1
melting point: 145 to 147 °C

O=C(O)c1cc([N+](=O)[O-])cc([N+](=O)[O-])c1F
melting point: 204 to 206 °C

Nc1cccc(NC(=O)CCn2cccn2)c1
melting point: 104 to 106 °C

O=C(Nc1ccccc1F)Nc1cccc2c1CCCN2
melting point: 204 to 206 °C

O=C(O)c1cncc(OCC(F)F)c1
melting point: 166 to 168 °C

COC(=O)c1cc(S(N)(=O)=O)cnc1Cl
melting point: 60 to 62 °C

CCNC(=O)COc1ccc(C=O)cc1OC
melting point: 109 to 111 °C

O=C(Nc1ccc(Br)cc1)c1cccnc1Cl
melting point: 150 to 152 °C

O=C(O)c1cc2c(c(S(=O)(=O)Cl)c1)CCCC2
melting point: 193 to 195 °C

Nc1nnc(Cc2ccccc2)s1
melting point: 170 to 179 °C

O=C(NC1CC1)c1cc(Cl)nc2ccccc12
melting point: 190 to 193 °C

CS(=O)(=O)Cc1ccc(C(=O)O)cc1
melting point: 253 to 255 °C

CN1C(=CC=O)C(C)(C)c2ccccc21
melting point: 93 to 95 °C

CC(=O)NCCOc1ccc(N)cc1
melting point: 92 to 94 °C

O=C(Nc1cccc(C(=O)O)c1)Nc1ccc(Cl)c(Cl)c1
melting point: 279 to 281 °C

NC(=O)Cn1c(S)nnc1-c1cccs1
melting point: 319 to 321 °C

O=C(O)c1ccc2c(=O)n(-c3cccc(Cl)c3)c(=O)[nH]c2c1
melting point: 365 to 367 °C

Nc1ccccc1Oc1ccncc1
melting point: 98 to 100 °C

COc1cc(S(=O)(=O)Nc2ccc3c[nH]nc3c2)ccc1Br
melting point: 199 to 201 °C

Cn1ncc2c(=O)[nH]nnc21
melting point: 152 to 154 °C

CC(C)CCNC(=O)C1CCN(C(=O)CCl)CC1
melting point: 119 to 121 °C

Nc1nc2cc(Cl)cc(Br)c2o1
melting point: 228 to 230 °C

COc1ccc(Oc2ccc(CO)cc2)cc1
melting point: 100 to 102 °C

O=C(O)CCNC(=O)c1ccc(F)cc1
melting point: 133 to 135 °C

O=C(CCCl)Nc1ccc(Cl)cc1
melting point: 124 to 126 °C

Cc1cc(S(N)(=O)=O)sc1C(=O)O
melting point: 249 to 251 °C

COc1ccc(C(O)CCC(=O)O)cc1 (stereo unspecified)
melting point: 92 to 94 °C

CSc1c(F)cc(N)cc1F
melting point: 91 to 93 °C

COC(=O)C(N)c1cc(C)c(O)c(C)c1 (stereo unspecified)
melting point: 147 to 149 °C

Nn1cnc2sccc2c1=O
melting point: 214 to 216 °C

NC1(c2nn[nH]n2)CCCC1
melting point: 229 to 231 °C

Cc1nn(CCC(=O)O)c(C)c1[N+](=O)[O-]
melting point: 116 to 118 °C

N#CCc1ccc(C(N)=O)cc1
melting point: 186 to 188 °C

Cc1ccc2c(c1)C(=O)N(CCC(=O)O)C2=O
melting point: 163 to 165 °C

CC1CCCN(C(N)=S)C1 (stereo unspecified)
melting point: 103 to 105 °C

Cc1[nH]nc(C(=O)O)c1S(=O)(=O)Cl
melting point: 150 to 152 °C

O=C(O)C1(O)Cc2ccccc2C1
melting point: 176 to 178 °C

CCOC(=O)C(C)=NNc1ccc(Br)cc1CC
melting point: 68 to 70 °C

COC(=O)Cn1cc(C(C)=O)nn1
melting point: 79 to 81 °C

O=C(O)c1cccnc1N1CCCCC1
melting point: 94 to 96 °C

Cc1cc(F)cc2[nH]c(C(=O)O)cc12
melting point: 261 to 263 °C

Cc1c(C(=O)O)nnn1-c1cccc([N+](=O)[O-])c1
melting point: 169 to 171 °C

O=C(NC=C(Cl)Cl)c1cccc(Br)c1
melting point: 91 to 93 °C

Cc1cccc(S(N)(=O)=O)c1Cl
melting point: 169 to 171 °C

OCc1ccnc(-c2ccccc2)n1
melting point: 43 to 45 °C

CC(=O)Nc1cc(C)nn1CCC#N
melting point: 159 to 161 °C

CC(=O)c1ccc(OCC#N)cc1
melting point: 82 to 84 °C

Nc1cc(S(=O)(=O)N2CCOCC2)ccc1N1CCOCC1
melting point: 210 to 212 °C

CC(C(=O)O)=C1CCCC1
melting point: 107 to 109 °C

COc1ccc(O)c(C(=O)c2ccccc2)c1
melting point: 81 to 83 °C

Clc1ccc2[nH]c3c(c2c1)CNCC3
melting point: 226 to 228 °C

CCOC(=O)c1sc2ncc(C#N)cc2c1C
melting point: 181 to 183 °C

COc1ccc(Oc2ccc(Cl)cc2N)cc1
melting point: 47 to 49 °C

Cc1nn(-c2ccccc2)c2nc(Cl)c(C=O)cc12
melting point: 189 to 191 °C

O=C(O)Cc1ccc(S(=O)(=O)N2CCCC2)s1
melting point: 262 to 264 °C

Nc1cnn(CC(=O)NCCO)c1
melting point: 98 to 100 °C

CC(c1nc(-c2ccc(Cl)cc2)no1)N1CCNCC1 (stereo unspecified)
melting point: 78 to 80 °C
